Laboratory results as given in PubChem BioAssay (NCI).
Several values for one entry are separate records, joined by “and”; a condition that tells them apart may be missing. Equal entries are not always repeated.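 Assay format: 96-well plates, 48-hour exposure. GI50 marks 50% less growth. TGI denotes the concentration required for complete inhibition of growth.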

Experiments:
Test in all cases: DTP human tumour cell line panel, 48 h
[1] = tested on: OVCAR-3 ovarian
[2] = tested on: NCI/ADR-RES ovarian
[3] = tested on: CAKI-1 renal
[4] = tested on: HCT-116 colon
[5] = tested on: NCI-H522 lung
[6] = tested on: SF-268 CNS
[7] = tested on: ACHN renal
[8] = tested on: PC-3 prostate
[9] = tested on: MCF7 breast
[10] = tested on: TK-10 renal

| SMILES | GI50 [1] | TGI [1] | GI50 [2] [µM] | TGI [2] [µM] | GI50 [3] | TGI [3] | GI50 [4] | TGI [4] | GI50 [5] [µM] | TGI [5] | GI50 [6] [µM] | TGI [6] | GI50 [7] | TGI [7] | GI50 [8] [µM] | TGI [8] | GI50 [9] [µM] | TGI [9] | GI50 [10] | TGI [10] |
| --- | --- | --- | --- | --- | --- | --- | --- | --- | --- | --- | --- | --- | --- | --- | --- | --- | --- | --- | --- | --- |
| N#C[Se]CCN1C(=O)c2ccccc2C1=O | 2.73 µM | 9.39 µM | 1.87 | 7.42 | 2.94 µM | 8.62 µM | 1.06 µM | 3.23 µM | 4.72 | 21.9 µM | 1.83 | 3.84 µM | 3.33 µM | 11.9 µM | 1.74 | 8.27 µM | 2.24 | 13.1 µM | 2.13 µM | 6.3 µM |
| O=S(=O)(O)C(c1ccccc1)C(O)c1ccccc1 (centres undefined) |  | > 100 µM |  | > 100 |  | > 100 µM |  | > 100 µM |  | > 100 µM |  | > 100 µM |  | > 100 µM |  | > 100 µM |  | > 100 µM |  | > 100 µM |
| NS(=O)(=O)c1cc2c(cc1Cl)NCNS2(=O)=O |  | > 100 µM |  | > 100 |  | > 100 µM |  | > 100 µM |  | > 100 µM |  | > 100 µM |  | > 100 µM |  | > 100 µM |  | > 100 µM |  | > 100 µM |
| Oc1c(Br)cc(Cl)cc1C(c1cc(Cl)cc(Br)c1O)C(Cl)(Cl)Cl | 3.14 µM | 10.1 µM | 2.48 | 8.66 | 2.09 µM | 8.73 µM | 2.12 µM | 7.91 µM | 1.86 | 6.07 µM | 3.61 | 15.2 µM | 3.06 µM | 9.81 µM | 2.11 | 8.21 µM | 2.83 | 10.9 µM | 4.3 µM | 13.3 µM |
| CN(C)c1ccc(/C=N/N=C(\C#N)[S][Sn]([Cl])([c]2ccccc2)[c]2ccccc2)cc1 | 1.3 µM | 2.59 µM | 2.01 | 4.76 | 1.27 µM | 2.56 µM | 1.32 µM | 2.63 µM | 0.127 | 0.369 µM | 1.51 | 3.06 µM | 1.72 µM | 3.2 µM | 2.94 | 8.38 µM | 0.283 | 1.35 µM | 1.46 µM | 2.8 µM |
| CC(C)c1ccc2c(c1)CCC1C2CCCC1(C)NCc1ccccc1 (centres undefined) | 9.34 µM | 24.4 µM | 5.84 | 19.9 | 3.22 µM | 15.3 µM | 4.21 µM | 14.7 µM | 1.68 | 3.55 µM | 8.98 | 26.1 µM | 10 µM | 22.7 µM | 6.06 | 19.3 µM | 2.53 | 6.76 µM | 2.71 µM | 7.19 µM |
| COc1ccccc1CNCCCN1C(=O)c2ccc3c4c(ccc(c24)C1=O)C(=O)N(CCCNCc1ccccc1OC)C3=O | 0.085 µM | 0.218 µM | 1.19 | 4.54 | 0.233 µM | 0.725 µM | 0.0805 µM | 0.274 µM | 0.145 | 0.307 µM | 0.257 | 0.834 µM | 0.17 µM | 0.555 µM | 0.214 | 0.608 µM | 0.108 | 0.329 µM | 0.17 µM | 0.466 µM |
| CC(=O)O[C@H]1C[C@@H]2[C@@]3(C)CC[C@H]4C[C@@]4(C)[C@@H]3CC[C@@]2(C)C2=CCC3=C(COC3=O)[C@]21C | 10.1 µM | 25.7 µM | 16.9 | 36.3 |  |  | 19.5 µM | 43.7 µM | 24.5 | 84.1 µM | 21 | 46.9 µM | 21.5 µM | 43.9 µM | 18.4 | 46.1 µM | 24 | 89.8 µM | 20.4 µM | 48.5 µM |
| CNCc1cccc2c1OCCOCCOCCNS(=O)(=O)c1ccc(cc1)-c1cnc(N)c(n1)C(=O)N2 | 1.12 µM | 2.61 µM | 84.3 | > 100 | 0.46 µM | 1.86 µM | 0.67 µM | 2.67 µM | 1.31 | 3.15 µM | 1.04 | 3.31 µM | 2.78 µM | 11.7 µM |  |  | 0.439 | 5.11 µM | 1.98 µM | 8.49 µM |
| OC[C@H]1C[C@](O)(c2ccc(F)cc2)[C@@H](c2ccc(F)cc2)O1 | > 100 µM | > 100 µM | > 100 | > 100 | > 100 µM | > 100 µM | 90.5 µM | > 100 µM | > 100 | > 100 µM | > 100 | > 100 µM | > 100 µM | > 100 µM | > 100 | > 100 µM | > 100 | > 100 µM | > 100 µM | > 100 µM |
| O=C(NO)c1ccc(CNc2cccc3nc(C4CC4)n(-c4ccccc4)c(=O)c23)cc1 | 1.92 µM | 5.51 µM | 1.28 | 6.45 | 2.12 µM | 7.51 µM |  |  | 1.47 | 3.38 µM |  |  | 1.92 µM | 4.67 µM |  |  | 3.35 | 18 µM | 1.73 µM | 7 µM |
| COc1nc(N)nc2nc[nH]c12 | 744 µM and > 856 µM | 500 µM and 800 µM and > 1000 µM | 580 | > 739 | 188 µM and 295 µM | 410 µM and 522 µM and 730 µM | 747 µM and 670 µM | 500 µM and 800 µM and > 1000 µM | 554 | 500 µM and 800 µM and > 917 µM | 646 | 500 µM and 800 µM and > 1000 µM | 454 µM and 381 µM | 500 µM and 800 µM and > 1000 µM |  | 500 µM and > 1000 µM | 604 | 500 µM and > 1000 µM | 431 µM and 442 µM | 500 µM and 800 µM and > 1000 µM |
| CCOC(=O)C#Cc1c(C(=O)OCC)nnn1[C@@H]1O[C@H](COC)[C@@H](OC)[C@H]1OC | 1.72 µM | 3.25 µM | 15.9 | 37.3 | 1.74 µM | 3.14 µM | 3.33 µM | 10.7 µM | 1.97 | 3.9 µM | 16.3 | 35.6 µM | 1.95 µM | 3.9 µM | 16.7 | 31.7 µM | 2.85 | 12.7 µM | 1.86 µM | 3.45 µM |
